In patent US5684034A, “1H-indole-3-acetamide sPLA2 inhibitors” (Eli Lilly and Company, priority 1995, dated 1997):
Where “and” joins values, the source holds several entries; their conditions need not be identical. Equal values may be shown once. Where a name gives a salt, the structure may show the parent alone. Read-outs that look alike come from different tables or passages of the source.

How the values were obtained:
[1] = target: T1, recombinant human secreted phospholipase A2 (Homo sapiens, UniProt P14555); assay: Human secreted phospholipase A2 inhibition test (chromogenic assay, diheptanoyl thio-PC substrate); assay type: biochemical; settings: pH 7.5, 40° C., 30 minutes, 405 nm
T1 sequence (P14555 21-144): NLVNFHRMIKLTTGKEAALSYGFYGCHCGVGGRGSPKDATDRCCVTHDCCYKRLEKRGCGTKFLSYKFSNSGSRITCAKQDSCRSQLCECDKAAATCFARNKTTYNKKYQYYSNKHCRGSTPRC
Procedure: The following chromogenic assay procedure was used to identify and evaluate inhibitors of recombinant human secreted phospholipase A2. The assay described herein has been adapted for high volume screening using 96 well microtiter plates.
A measured volume of racetic dipheptanoyl thio PC supplied in chloroform at a concentration of 100 mg/ml is taken to dryness and redissolved in 10 millimolar TRITON X-100™ nonionic detergent aqueous solution. Reaction Buffer is added to the solution, then DTNB to give the Reaction Mixture.
The reaction mixture thus obtained contains 1 mM diheptanoly thio-PC substrate, 0.29 mm Triton X-100™ detergent, and 0.12 mm DTMB in a buffered aqueous solution at pH 7.5.
1. Add 0.2 ml reaction mixture to all wells;
2. Add 10 ul test compound (or solvent blank) to appropriate wells, mix 20 seconds:
3. Add 50 nanograms of sPLA2 (10 microliters) to appropriate wells;
4. incubate plate at 40° C. for 30 minutes;
All compounds were tested in triplicate. […] Each sample was titrated in triplicate and result values were averaged for plotting and calculation of IC50 values. […] Each IC50 value was determined three times.

sPLA2 = target: T2, sPLA2 (Homo sapiens, UniProt P14555); assay: Tissue test: sPLA2-induced contraction of guinea pig lung pleural strips; design: species or system guinea pig (male Hartley); settings: % suppression of sPLA2 contraction (sPLA2 10 ug/ml) at compound concentration of 30 uM, read-out: Tissue Test (sPLA2) % Supp (30 uM)
T2 sequence (P14555 21-144): T1 sequence (P14555 21-144)
Description: Male Hartley strain guinea pigs (500-700 g) were killed by cervical dislocation and their heart and lungs removed intact and placed in aerated (95% O2 :5% CO2) Krebs buffer. Dorsal pleural strips (4×1×25 mm) were dissected from intact parenchymal segments (8×4×25 mm) cut parallel to the outer edge of the lower lung lobes. Two adjacent pleural strips, obtained from a single lobe and representing a single tissue sample, were tied at either end and independently attached to a metal support rod. One rod was attached to a Grass force-displacement transducer (Model FTO3C, product of Grass Medical Instruments Co., Quincy, Mass., U.S.A.). […] All tissues were placed in 10 ml jacketed tissue baths maintained at 37° C. The tissue baths were continuously aerated and contained a modified Krebs solution of the following composition (millimolar) NaCl, 118.2; KCl, 4.6; CaCl2.2H2 O, 2.5; MgSO4.7H2 O, 1.2; NaHCO3, 24.8; KH2 PO4, 1.0; and dextrose, 10.0. Pleural strips from the opposite lobes of the lung were used for paired experiments. […] The tissues were allowed to equilibrate for 45 min. as the bath fluid was changed periodically.
Initially tissues were challenged 3 times with KCl (40 mM) to test tissue viability and to obtain a consistent response. After recording the maximal response to KCl, the tissues were washed and allowed to return to baseline before the next challenge. Cumulative concentration-response curves were obtained from pleural strips by increasing the agonist concentration (sPLA2) in the tissue bath by half-log10 increments while the previous concentration remained in contact with the tissues (Ref. 1, supra.) Agonist concentration was increased after reaching the plateau of the contraction elicited by the preceding concentration. One concentration-response curve was obtained from each tissue. To minimize variability between tissues obtained from different animals, contractile responses were expressed as a percentage of the maximal response obtained with the final KCl challenge. When studying the efects of various drugs on the contractile efects of sPLA2, the compounds and their respective vehicles were added to the tissues 30 min. prior to starting the sPLA2 concentration-response curves.
Data from different experiments were pooled and presented as a percentage of the maximal KCl responses (mean±S.E.). To estimate the drug induced rightward shifts in the concentration response curves, the curves were analyzed simultaneously using statistical nonlinear modeling methods similar to those described by Waud (1976), Equation 26, p. 163, (Ref. 2). The model includes four parameters: the maximum tissue response which was assumed the same for each curve, the ED50 for the control curve, the steepness of the curves, and the pA2, the concentration of antagonist chat requires a two-fold increase in agonist to achieve an equivalent response. The Schild slope was determined to be 1, using statistical nonlinear modeling methods similar to those described by Waud (1976), Equation 27, p. 164 (Ref. 2).
To estimate the drug-induced suppression of the maximal responses, sPLA2 responses (10 ug/ml) were determined in the absence and presence of drug, and percent suppression was calculated for each pair of tissues.

[2] = Inhibition of human secreted PLA2 IC50 ± mean deviation (3-5 tests)
[3] = read-out: Inhibition of human secreted PLA2 IC50 ± mean deviation (3-5 tests)

| SMILES | IC50 [1, 2] | inhibition at 30 µM (sPLA2) [%] | IC50 [1, 3] [nM] |
| --- | --- | --- | --- |
| COc1ccc2c(c1)c(CC(N)=O)c(SC)n2Cc1ccccc1 [Example 12, 5-Methoxy-2-(methylthio)-1-(phenylmethyl)-1H-indole-3-acetamide] | 400 ± 90 nM | 30.3 ± 15.2 | – |
| COc1ccc2c(c1)c(CC(N)=O)c(C)n2CC1CCCCC1 [Example 4, 1-Cyclohexylmethyl-5-methoxy-2-methyl-1H-indole-3-acetamide] | – | 10.5 ± 23.1 | 2050 ± 850 |
| CCc1c(CC(N)=O)c2cc(OC)ccc2n1Cc1ccccc1 [Example 9, 2-Ethyl-5-methoxy-1-(phenylmethyl)-1H-indole-3-acetamide] | – | 49.2 ± 9.4 | 260 ± 110 |
| COc1ccc2c(c1)c(CC(N)=O)c(C)n2Cc1ccccc1 [Example 5, 5-Methoxy-2-methyl-1-(phenylmethyl)-1H-indole-3-acetamide] | – | 74.9 ± 4.2 | 840 ± 170 |
| Cc1c(CC(N)=O)c2cc(OCCCCC(=O)O)ccc2n1Cc1ccccc1 [Example 23, 5-[[3-(2-Amino-2-oxoethyl)-2-methyl-1-(phenylmethyl)-1H-indol-5-yl]oxy]pentanoic acid] | – | 83.3 ± 2.7 | 920 ± 360 |
| CCOC(=O)COc1ccc2c(c1)c(CC(N)=O)c(C)n2Cc1ccccc1 [Example 18, 2-[[3-(2-Amino-2-oxoethyl)-2-methyl-1-(phenylmethyl)-1H-indol-5-yl]oxy]acetic acid ethyl ester] | – | 74.1 ± 4 | 800 ± 50 |
| NC(=O)Cc1c(Br)n(Cc2ccccc2)c2cc(Cl)c(O)cc12 [Example 90, 2-Bromo-6-chloro-5-hydroxy-1-(phenylmethyl)-H-indole-3-acetamide] | – | – | 90 ± 10 |
| COc1cc2c(CC(N)=O)c(Br)n(Cc3ccccc3)c2cc1Cl [Example 89, 2-Bromo-6-chloro-5-methoxy-1-(phenylmethyl)-H-indole-3-acetamide] | – | – | 120 ± 20 |
| NC(=O)Cc1c(C2CC2)n(Cc2ccccc2)c2ccc(OCCCP(=O)(O)O)cc12 [Example 79, [3-[[3-(2-Amino-2-oxoethyl)-2-cyclopropyl-1-(phenylmethyl)-1H-indol-5-yl]oxy]propyl]phosphonic acid] | 46 ± 6 nM | – | – |
| CCCCCCCCn1c(C)c(CC(N)=O)c2cc(OC)ccc21 [Example 51, 5-Methoxy-2-methyl-1-octyl-1H-indole-3-acetamide] | – | – | 8280 ± 4330 |
| NC(=O)Cc1cn(Cc2ccccc2)c2ccc(OCP(=O)(O)O)cc12 [Example 81, [[3-(2-Amino-2-oxoethyl)-1-(phenylmethyl)-1H-indol-5-yl]oxy]methyl]phosphonic acid disodium salt] | 3800 nM and 3600 nM | – | – |
| CCCCCCCCCCn1c(C)c(CC(N)=O)c2cc(OCCCC(=O)O)ccc21 [Example 53] | – | – | 680 |
| COc1ccc2c(c1)c(CC(N)=O)c(Cl)n2Cc1ccccc1 [Example 11, 2-Chloro-5-methoxy-1-(phenylmethyl)-1H-indole-3-acetamide] | – | – | 250 ± 30 |
| Cc1c(CC(N)=O)c2cc([N+](=O)[O-])ccc2n1Cc1ccccc1 [Example 16, 2-Methyl-5-nitro-1-(phenylmethyl)-1H-indole-3-acetamide] | – | 51.7 ± 4.2 | 1840 ± 440 |
